Where two headings read alike, the source gives them in different places.

Data set [1] can be described thus: Oxygen solubility measured by gas chromatograph having a thermal conductivity detector. The class given is physicochemical. As to conditions: 25° C., 760 mm O2 pressure. As to the method: Oxygen solubilities were measured at 25° C. and 760 mm O2 pressure for representative hybrid, fluoroolefin and prior art compounds by means of a gas chromatograph having a thermal conductivity detector and calculated from molar volume and ΔH(vap) by the method of Fedors (Polymer, Engr. Sci. 14 147 (1974). Good agreement was obtained as shown in the following table: […]

Data set [2] in a line: Literature values or other data (D, V, δ, BP). Type of data set: physicochemical.
For data set [3] the following is noted: 3M data; cited from earlier work.

For `CCOC(=O)CC(C(F)(F)F)(C(F)(F)F)C(F)(F)F`, the “Measured O2 Solubility” value in data set [1] is recorded as 34.4 cc O2 /100 cc FC. The same molecule showed a BP in data set [2] (36mm) of 53 °C. In data set [2] (unit not given), this molecule registered a D of 1.4895, a V of 205.5 and a δ of 7.39.

Take `FC(F)(F)C(=C(C(F)(C(F)(F)F)C(F)(F)F)C(F)(C(F)(F)F)C(F)(F)F)C(F)(F)F`: the “Measured O2 Solubility” value in data set [1] was determined as 39.5 cc O2 /100 cc FC. This molecule also returned a BP in data set [2] (735mm) of 110 °C. Moreover, in data set [2] (unit not given), the D amounted to 1.820, the V came to 219.8 and the δ turned out to be 6.4.

Turning to `CCCCC(C(F)(F)F)(C(F)(F)F)C(F)(F)F` [(CF3)3 C(CH2)3 CH3], the “Measured O2 Solubility” value in data set [1] turned out to be 41.2 cc O2 /100 cc FC. In data set [2], this molecule came in with a D of 1.393 g/cc, a V of 198.3 cc/mole and a δ of 5.98 Hb. The BP in data set [2] (750mm) came out at 101.5 °C.

In the case of `C=CCC(C(F)(F)F)(C(F)(F)F)C(F)(F)F` [(CF3)3 CCH2 CHCH2], the “Measured O2 Solubility” value in data set [1] was determined as 48 cc O2 /100 cc FC. For the same molecule, the BP in data set [2] (735mm) worked out at 76 °C. In data set [2] (unit not given), this molecule had a D of 1.442, a V of 180.31 and a δ of 6.0.

For the molecule `FC(F)(F)C(F)(F)C(F)(F)C(F)(F)N(C(F)(F)C(F)(F)C(F)(F)C(F)(F)F)C(F)(F)C(F)(F)C(F)(F)C(F)(F)F` [(n-C4 F9)3 N(FC-43), reference compound], the “Measured O2 Solubility” value in data set [1] is 36.8 cc O2 /100 cc FC. For the same molecule, in data set [3], the “3M solubility data (Literature Values)” value is on record as 38.9 cc O2 /100ccFC.
